Measured values published in patent US20240299382A1, “COMPOUNDS AND METHODS FOR DEGRADING RCOR1, LSD1, HDAC1 AND HDAC2 IN THE COREST” (University of Florida Research Foundation, Inc., priority 2021, published 2024).
Entries after “also recorded” stand apart in the source; their conditions may differ. Like-named read-outs stand apart in the source and are kept apart here.

What was measured:
[1] = mice, 50 mg/kg orally; cited from earlier work
HDACs = test: HDAC inhibition (HDACi activity); type: biochemical
[2] = system: MDA-MB-231 and T47D cells; test: Viability assay using CellTiter-Glo, four days; type: cell-based; settings: SR-4370 compared to UF010
Description: (§1) MDA-MB-231 and T47D cells were treated with the indicated compounds for four days (FIG. 5A). Viability assays were done using CellTiter-Glo. Shown are normalized values vs. vehicle±SEM (n=3). IC50 values are calculated using Prism 6. Note that SR-3460 has no HDACi activity. Cells were seeded and then continuously treated with SR-4370 or UF010 at the indicated concentrations for 15 days. Colonies were fixed and stained (FIG. 5B).

HDAC2 = biological target: T1, HDAC2 (Homo sapiens, UniProt Q92769); test: Western blotting of protein levels in MCF7 cells; type: cell-based; settings: for degradation of HDAC2: 10 μM, 6 hours, Western blotting
T1 construct: endogenous in cells; host or cells: MCF7
T1 sequence (Q92769 whole entry): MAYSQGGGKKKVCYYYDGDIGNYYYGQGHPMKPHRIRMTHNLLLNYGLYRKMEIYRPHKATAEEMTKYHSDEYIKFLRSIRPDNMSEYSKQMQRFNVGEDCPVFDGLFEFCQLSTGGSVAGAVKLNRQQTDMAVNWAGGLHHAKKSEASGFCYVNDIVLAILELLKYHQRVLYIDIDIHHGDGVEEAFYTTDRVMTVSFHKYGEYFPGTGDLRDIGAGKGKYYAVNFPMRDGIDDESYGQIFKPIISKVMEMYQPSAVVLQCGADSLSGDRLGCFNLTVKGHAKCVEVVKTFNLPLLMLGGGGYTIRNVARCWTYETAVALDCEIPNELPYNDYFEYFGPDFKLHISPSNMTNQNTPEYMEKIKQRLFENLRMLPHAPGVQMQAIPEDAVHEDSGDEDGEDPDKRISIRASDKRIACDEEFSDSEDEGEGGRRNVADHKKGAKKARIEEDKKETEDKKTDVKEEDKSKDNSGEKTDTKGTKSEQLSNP
Description: (§2) MCF7 cells were exposed to DMSO or the indicated compounds (10 μM) for 6 hours. Cells were pretreated with the proteasomal inhibitor MG132 (MG, 3 μM) or the neddylation inhibitor MLN4924 (MLN, 1 μM) for 2 hours. Cells were then lysed and subjected to Western blotting with antibodies against the indicated proteins. The levels of RCOR1 were normalized against that of tubulin and shown as % of DMSO control.
(§3) MCF7 cells were exposed to DMSO, SR-4370 and other compounds at the indicated concentrations for 14 hours. Cells were pretreated with the proteasomal inhibitor MG132 (MG, 3 μM) or the neddylation inhibitor MLN4924 (MLN, 1 μM) for 2 hours. Cells were then lysed and subjected to Western blotting with antibodies against the indicated proteins. The levels of RCOR1 and LSD1 were normalized against that of tubulin and shown as % of DMSO control.

HDAC1 = biological target: T2, HDAC1 (Homo sapiens, UniProt Q13547); test: Western blotting of protein levels in MCF7 cells; type: cell-based; settings: for degradation of HDAC1: 10 μM, 6 hours, Western blotting
T2 construct: endogenous in cells; host or cells: MCF7
T2 sequence (Q13547 whole entry): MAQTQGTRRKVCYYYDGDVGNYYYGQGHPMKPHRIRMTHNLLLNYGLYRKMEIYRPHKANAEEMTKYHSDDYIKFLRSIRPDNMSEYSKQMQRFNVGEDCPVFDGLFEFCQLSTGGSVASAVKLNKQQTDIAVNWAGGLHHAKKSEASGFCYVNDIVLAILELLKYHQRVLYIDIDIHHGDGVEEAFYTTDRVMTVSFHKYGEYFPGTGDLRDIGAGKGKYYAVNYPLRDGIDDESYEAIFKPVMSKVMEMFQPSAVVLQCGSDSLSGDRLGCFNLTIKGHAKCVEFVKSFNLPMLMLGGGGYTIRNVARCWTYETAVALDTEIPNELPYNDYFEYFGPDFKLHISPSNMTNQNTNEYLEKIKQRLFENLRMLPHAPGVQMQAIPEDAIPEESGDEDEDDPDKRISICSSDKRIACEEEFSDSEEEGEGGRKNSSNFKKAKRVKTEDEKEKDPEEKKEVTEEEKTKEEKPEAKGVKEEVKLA
Description: as §2, §3

LSD1 = biological target: T3, LSD1 (Homo sapiens, UniProt O60341); test: Western blotting of protein levels in MCF7 cells; type: cell-based; settings: for degradation of LSD1 / LSD1 protein level: MCF7 cells; for degradation of LSD1: 10 μM, 6 hours, Western blotting; for LSD1 protein level: indicated concentrations, 14 hours
T3 construct: Cells were then lysed and subjected to Western blotting with antibodies against the indicated proteins; endogenous in cells; host or cells: MCF7
Description: (§4) […] Cells were pretreated with the proteasomal inhibitor MG132 (MG, 3 μM) or the neddylation inhibitor MLN4924 (MLN, 1 μM) for 2 hours. Cells were then lysed and subjected to Western blotting with antibodies against the indicated proteins. The levels of RCOR1 were normalized against that of tubulin and shown as % of DMSO control.
(§5) Cells were pretreated with the proteasomal inhibitor MG132 (MG, 3 μM) or the neddylation inhibitor MLN4924 (MLN, 1 μM) for 2 hours. Cells were then lysed and subjected to Western blotting with antibodies against the indicated proteins. The levels of RCOR1 and LSD1 were normalized against that of tubulin and shown as % of DMSO control.

RCOR1 = biological target: T4, RCOR1 (Homo sapiens, UniProt Q9UKL0); test: Western blotting of protein levels in MCF7 cells; type: cell-based; settings: for degradation of RCOR1: 10 μM, 6 hours, Western blotting; for RCOR1 protein level: indicated concentrations
T4 construct: Cells were then lysed and subjected to Western blotting with antibodies against the indicated proteins; endogenous in cells; host or cells: MCF7
T4 sequence (Q9UKL0 whole entry): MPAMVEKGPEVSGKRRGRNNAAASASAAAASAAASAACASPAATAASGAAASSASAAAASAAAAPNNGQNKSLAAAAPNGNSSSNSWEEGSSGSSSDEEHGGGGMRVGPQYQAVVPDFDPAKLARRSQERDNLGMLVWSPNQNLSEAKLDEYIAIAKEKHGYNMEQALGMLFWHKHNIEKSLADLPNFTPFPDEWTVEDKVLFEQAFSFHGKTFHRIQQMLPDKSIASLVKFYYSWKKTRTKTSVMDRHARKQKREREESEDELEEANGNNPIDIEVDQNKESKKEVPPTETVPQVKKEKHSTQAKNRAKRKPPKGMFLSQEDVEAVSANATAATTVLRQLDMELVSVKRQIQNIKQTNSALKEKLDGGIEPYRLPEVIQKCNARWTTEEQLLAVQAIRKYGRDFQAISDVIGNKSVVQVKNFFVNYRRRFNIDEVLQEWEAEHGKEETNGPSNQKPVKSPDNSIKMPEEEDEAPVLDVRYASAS
Description: as §4, §5

BC cell lines = test: Colony formation, continuous treatment for 15 days; type: cell-based; settings: continuous treatment 15 days, colonies; compared to UF010
Description: as §1

RCOR3 = test: Western blotting of protein levels in MCF7 cells; type: cell-based; settings: 14 hours
Description: as §3

RCOR2 = test: Western blotting of protein levels in MCF7 cells; type: cell-based; settings: 14 hours
Description: as §3

HDAC8 = biological target: T5, HDAC8 (Homo sapiens, UniProt Q9BY41); test: Western blotting of protein levels in MCF7 cells; type: cell-based; settings: 14 hours
T5 construct: endogenous in cells; host or cells: MCF7
T5 sequence (Q9BY41 1-377): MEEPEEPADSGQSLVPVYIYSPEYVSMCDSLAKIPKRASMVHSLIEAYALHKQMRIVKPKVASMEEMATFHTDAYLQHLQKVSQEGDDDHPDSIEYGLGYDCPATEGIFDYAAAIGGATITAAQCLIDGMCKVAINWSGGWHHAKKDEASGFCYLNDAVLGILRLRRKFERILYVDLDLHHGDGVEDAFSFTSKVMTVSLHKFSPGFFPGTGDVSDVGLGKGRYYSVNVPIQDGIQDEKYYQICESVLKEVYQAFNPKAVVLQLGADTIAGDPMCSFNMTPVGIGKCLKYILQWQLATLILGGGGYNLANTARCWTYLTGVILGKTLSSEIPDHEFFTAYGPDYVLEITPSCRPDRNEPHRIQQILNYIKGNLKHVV
Description: as §3

MTA2 = test: Western blotting of protein levels in MCF7 cells; type: cell-based; settings: 14 hours
Description: as §3

RBBP4 = test: Western blotting of protein levels in MCF7 cells; type: cell-based; settings: 14 hours
Description: as §3

LSD2 = test: Western blotting of protein levels in MCF7 cells; type: cell-based; settings: 14 hours
Description: as §3

HDAC3 = biological target: T6, HDAC3 (Homo sapiens, UniProt O15379); test: Western blotting of protein levels in MCF7 cells; type: cell-based; settings: 14 hours
T6 construct: endogenous in cells; host or cells: MCF7
T6 sequence (O15379 whole entry): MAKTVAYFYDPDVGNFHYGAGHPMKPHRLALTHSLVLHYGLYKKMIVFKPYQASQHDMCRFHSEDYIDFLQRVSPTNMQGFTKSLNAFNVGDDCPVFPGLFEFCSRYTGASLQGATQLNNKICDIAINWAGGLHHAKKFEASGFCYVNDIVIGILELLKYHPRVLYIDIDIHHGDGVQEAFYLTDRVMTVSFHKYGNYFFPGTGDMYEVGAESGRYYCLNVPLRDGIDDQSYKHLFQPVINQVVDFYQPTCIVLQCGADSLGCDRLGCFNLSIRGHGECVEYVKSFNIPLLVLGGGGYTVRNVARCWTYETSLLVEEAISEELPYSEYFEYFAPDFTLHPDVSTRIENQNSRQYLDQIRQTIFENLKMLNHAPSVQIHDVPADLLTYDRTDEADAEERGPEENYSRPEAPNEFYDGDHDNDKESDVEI
Description: as §3

[3] = Tolerability and body weights of tumor-bearing mice dosed with SR-4370
Description: Female BALB/c mice bearing the EMT6 tumors were dosed with vehicle or SR-4370 (50 mg/kg) via intraperitoneal injection.
(§6) In vivo tolerability of UF010, the first identified compound of the benzoylhydrazide HDACi class, was evaluated in mice. […] We conducted pilot experiments to evaluate PK parameters of UF010. As with the MTD experiment, mice were dosed orally at 80 mg/kg. Plasma samples were collected at various time points and the amount of UF010 was determined.

[4] = Blood chemistry tests in tumor-bearing athymic mice
[5] = system: MDA-MB-231 xenograft tumors; orthotopic EMT6 and 4T1 mouse breast tumors; test: In vivo efficacy in breast tumor models; settings: mice bearing MDA-MB-231 xenograft, EMT6 or 4T1 tumors
Description: Female athymic mice bearing the MDA-MB-231 xenograft tumors were dosed with vehicle or SR-4370 (FIG. 3A). Tumor volumes and final tumor weights are plotted (average±SD). *: p<0.05, **: p<0.01 (FIGS. 3B and 3C). Female BALB/c mice bearing the orthotopic EMT6 (FIG. 3B) and 4T1 (FIG. 3C) mouse breast tumors were dosed with SR-4370 as in (FIG. 3A). At the endpoint, tumors were removed from euthanized mice and weighed. The tumor weight plots are shown (average±SD). The p values were calculated based on t test.

[6] = In vivo tolerability / MTD of UF010, oral dosing; settings: mice, oral dosing up to 80 mg/kg
Description: as §6

[7] = PK parameters after oral dosing in mice; settings: 80 mg/kg orally
Description: as §6

[8] = data from ref 80; cited from earlier work
[9] = indicated concentrations, 14 hours
[10] = MCF7 cells pretreated with MLN4924 (1 μM) or MG132 (3 μM) for 2 hours
[11] = tumor-bearing athymic mice, average ± SD, n = 6
[12] = tumor-bearing mice at the endpoint

Structure (SMILES): Cc1ccc(NC(=O)CCCCCC(=O)Nc2ccccc2N)cc1 [4b]
- AUC [1]: 1.08 µM·h
- Cmax [1]: 1.13 µM
- T1/2 [1]: 2.76 h
- Tmax [1]: 0.25 h

Structure (SMILES): CCCCNNC(=O)c1ccccc1-c1ccccc1 [SR-3460]
- HDACi activity (HDACs): does not inhibit HDACs
- cytotoxic effects / BC cell growth, short-term treatment [2]: did not inhibit BC cell growth

Structure (SMILES): CCCCNNC(=O)c1ccc(-c2ccccc2)cc1 [SR-3558]
- degradation of HDAC2 (HDAC2): can degrade
- degradation of HDAC1 (HDAC1): can degrade
- degradation of LSD1 (LSD1): can degrade
- degradation of RCOR1 (RCOR1; MCF7 cells): can degrade

Structure (SMILES): CCCCNNC(=O)c1ccc(-c2cncnc2)cc1 [SR-4369]
- degradation of HDAC2 (HDAC2): can degrade
- degradation of HDAC1 (HDAC1): can degrade
- degradation of LSD1 (LSD1): can degrade
- degradation of RCOR1 (RCOR1; MCF7 cells): can degrade

Structure (SMILES): CCCCNNC(=O)c1ccc(-c2cccc(F)c2F)cc1 [SR-4370]
- cytotoxic effects, long-term treatment (BC cell lines): more potent cytotoxic effects
- degradation of HDAC2 (HDAC2): can degrade
- HDAC2 protein level (HDAC2; [9]): potent and dose-dependent degradation; also recorded: only moderately reduced at a higher concentration
- degradation of HDAC1 (HDAC1): can degrade
- HDAC1 protein level (HDAC1; [9]): potent and dose-dependent degradation; also recorded: only moderately reduced at a higher concentration
- RCOR3 protein level (RCOR3): largely without affecting
- RCOR2 protein level (RCOR2): largely without affecting
- HDAC8 protein level (HDAC8): did not affect
- MTA2 protein level (MTA2): only moderately reduced at a higher concentration
- RBBP4 protein level (RBBP4): largely unaffected
- LSD2 protein level (LSD2): largely unaffected
- HDAC3 protein level (HDAC3): did not affect
- tolerability ([3]; SR-4370 up to 50 mg/kg, mice, in vivo efficacy study): completely tolerated
- body weights during the treatment period ([3]; tumor-bearing mice, BALB/c mice with EMT6 tumors, 50 mg/kg intraperitoneal, 50 mg/kg): not affected; also recorded: safe as judged by body weights
- downregulation of LSD1 under neddylation or proteasome inhibition (LSD1; [10]): completely reversed
- degradation of LSD1 (LSD1): can degrade
- LSD1 protein level (LSD1): potent and dose-dependent degradation
- downregulation of RCOR1 under neddylation or proteasome inhibition (RCOR1; [10]): completely reversed
- degradation of RCOR1 (RCOR1; MCF7 cells): can degrade
- DC50 (RCOR1; MCF7 cells, 14 hours, read-out: DC50 (concentration at which 50% of the target protein is degraded) for RCOR1): < 100 nM
- RCOR1 protein level (RCOR1; MCF7 cells, 14 hours): potent and dose-dependent degradation
- ALP [4, 11]: 49.5 (±8.78) U/L
- ALT [4, 11]: 71.60 (±14.06) U/L
- BUN [4, 11]: 22.0 (±3.16) mg/dL
- Calcium [4, 11]: 8.45 (±0.85) mg/dL
- Chloride [4, 11]: 110.0 (±2.17) mmol/L
- Cholesterol [4, 11]: 113.0 (±15.92) mg/dL
- Creatinine [4, 11]: 0.1 (±0.044) mg/dL
- Glucose [4, 11]: 221.17 (±60.6) mg/dL
- Phosphorus [4, 11]: 9.73 (±2.69) mg/dL
- Potassium [4, 11]: 8.75 (±1.82) mmol/L
- Sodium [4, 11]: 147.33 (±1.51) mmol/L
- Total bilirubin [4, 11]: 0.25 (±0.054) mg/dL
- Total protein [4, 11]: 4.95 (±0.217) g/dL
- liver or kidney toxicities [4, 12]: no signs of liver or kidney toxicities
- serum concentrations of various analytes versus reference ranges [4, 12]: within reference ranges
- anticancer effects in vivo (tumor volumes, tumor weights) [5]: potent anticancer effects
- cytotoxic effects / BC cell growth, short-term treatment [2]: more potent cytotoxic effects

Structure (SMILES): CCCCNNC(=O)c1ccc(-c2cc(C)cc(F)c2)cc1 [SR-4372]
- degradation of HDAC2 (HDAC2): can degrade
- degradation of HDAC1 (HDAC1): can degrade
- degradation of LSD1 (LSD1): can degrade
- degradation of RCOR1 (RCOR1; MCF7 cells): can degrade

Structure (SMILES): CCCCNNC(=O)c1ccc(Br)cc1 [UF010]
- degradation of HDAC2 (HDAC2): completely inactive
- degradation of HDAC1 (HDAC1): completely inactive
- in vivo tolerability [6]: completely tolerated without any signs of toxicity or loss of body weight
- oral bioavailability [7]: bioavailable orally
- AUC ([7]; plasma): 6.07 µM·h
- Cmax ([7]; plasma): 5.95 µM
- T1/2 ([7]; plasma): 1.24 h
- Tmax ([7]; plasma): 0.25 h
- HDACi activity (HDACs): potent HDACi
- degradation of LSD1 (LSD1): completely inactive
- degradation of RCOR1 (RCOR1; MCF7 cells): completely inactive

Structure (SMILES): O=C(/C=C/c1cccc(S(=O)(=O)Nc2ccccc2)c1)NO [belinostat, reference compound]
- LSD1 protein level (LSD1): moderately increased
- RCOR1 protein level (RCOR1; MCF7 cells, 14 hours): notably increased

Structure (SMILES): Nc1ccccc1NC(=O)c1ccc(CNC(=O)OCc2cccnc2)cc1 [entinostat, reference compound]
- T1/2 [8]: ~1 h
- LSD1 protein level (LSD1): slightly reduced
- RCOR1 protein level (RCOR1; MCF7 cells, 14 hours): notably increased

Structure (SMILES): O=C(CCCCCCC(=O)Nc1ccccc1)NO [vorinostat, reference compound]
- LSD1 protein level (LSD1): slightly reduced
- RCOR1 protein level (RCOR1; MCF7 cells, 14 hours): notably increased
